Assay results taken from patent US8901118B2, “Compounds and methods for kinase modulation, and indications therefor” (Plexxikon Inc., priority 2010, dated 2014).

How the values were obtained:
[1] = target: T1, BCR-FMS BaF3 cells (Homo sapiens, UniProt P07333); test: BaF3 BCR-FMS cell proliferation assay (ATPlite); format: cell-based; details: read-out: Inhibition of Cell Proliferation IC50, BCR/BaF3 Fms
T1 construct: fused on or other part: P11274 (Breakpoint cluster region protein)
T1 sequence (P07333 582-910): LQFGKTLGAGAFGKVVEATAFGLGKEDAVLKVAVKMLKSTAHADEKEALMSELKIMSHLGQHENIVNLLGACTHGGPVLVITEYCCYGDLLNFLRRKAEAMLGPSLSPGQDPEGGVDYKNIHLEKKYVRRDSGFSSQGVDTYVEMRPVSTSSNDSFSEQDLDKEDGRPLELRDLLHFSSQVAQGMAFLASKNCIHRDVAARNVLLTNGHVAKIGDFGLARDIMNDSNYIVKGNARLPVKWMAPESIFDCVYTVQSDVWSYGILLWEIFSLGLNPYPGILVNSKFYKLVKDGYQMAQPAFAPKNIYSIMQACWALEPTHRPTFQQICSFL
Description: (§1) Compounds are assessed in a variety of cell based assays. For example BaF3 cells engineered with any of BCR-FMS, BCR-KIT, BCR-FLT3, BCR-NTRK1, BCR-NTRK2, and BCR-NTRK3, are used in cell proliferation assays to assess inhibitory activity of Fms, Kit, Flt-3, TrkA, TrkB, and TrkC, respectively. An MV-4-11 (leukemia) cell proliferation assay is used to assess inhibitory activity in Flt-3, and SKNSH (human neuroblastoma) cell proliferation assay is used to assess efficacy of Fms/Trk inhibitors. Additional cells may be assayed similarly to assess the efficacy of Fms/Trk inhibitors, such as MiaPaCa (human pancreatic cancer) and Capan-1 (human pancreatic carcinoma) cells. Reagent and assay conditions are as follows: • BaF3 cells: • Maintained in RPMI containing 10% FBS, 1% PenStrep, 1% NEAA, and 1% L-Glutamine, supplemented with 1 mg/mL G418 and 5% WEHI-CM (or recombinant murine IL-3). • Confluent cells are split 1:50 to 1:100 every 3-4 days. • MV-4-11 cells: • Maintained in Iscove's Modified Dulbecco's Medium containing 10% FBS. • Confluent cells are split 1:4 every 3-4 days. • SKNSH cells: RPMI containing 10% FBS. On day 1, cells are counted, then centrifuged in a conical tube for 5 minutes at 1000 rpm. The supernatant is removed and cells are re-suspended as follows: • BaF3: resuspend in growth media +1 mg/mL G418 (without WEHFIL-3) to 2×10^5 cells/mL. • MV-4-11: resuspend in growth media to 5×10^5 cells/mL. • SKNSH: resuspend in growth media to 2×10^4 cells/mL. The cells are plated (50 μL, 150 μL for SKNSH cells) in each well of a 96-well dish (Corning 3610) and incubated at 37° C. in 5% CO2 overnight, cells plated to a final concentration of cells as follows: • BaF3: 10,000 cells per well. • MV-4-11: 25,000 cells per well. • SKNSH: 3,000 cells per well. On day 2, compound at a maximum concentration of 5 mM is serially diluted 1:3 for a total of 8 point titration with DMSO as a control. A 1 μL aliquot of each dilution point is added to 249 μL growth media and 50 μL is added to a well containing cells, providing 10 μM compound for the maximum concentration point. The cells are incubated for 3 days at 37° C. in 5% CO2. For SKNSH cells, a 0.75 μL aliquot of appropriate dilution in DMSO is added to 150 μL of cells. On day 5, ATPlite 1 step Luminescence Assay System (Perkin Elmer #6016739) is brought to room temperature along with the cell cultures. ATPlite is added to each well as follows: • BaF3: 25 μL per well. • MV-4-11: 40 μL per well. • SKNSH: 20 μL per well. The cells are incubated at room temperature for 10 minutes, then luminescence is read on Safire reader. The measured luminescence correlates directly with cell number, such that the reading as a function of compound concentration is used to determine the IC50 value.
(§2) It is understood that the results of these assays may vary as assay conditions are varied. Inhibition levels determined under the conditions described herein represent a relative activity for the compounds tested under the specific conditions employed. The cell based assays are likely to show variability due to the complexity of the system and the sensitivity thereof to any changes in the assay conditions. […] Results for compounds that are tested and show substantially no inhibition below the highest tested concentration are represented as “-” in the tables below. In some instances, the compounds were not tested in all of the assays, or assay results were not valid, as indicated by NA in the tables below.

[2] = target: T2, BCR-NTRK2 BaF3 cells (Homo sapiens, UniProt Q16620); test: BaF3 BCR-NTRK2 cell proliferation assay (ATPlite); format: cell-based; details: read-out: Inhibition of Cell Proliferation IC50, BCR/BaF3 TrkB
T2 construct: fused on or other part: P11274 (Breakpoint cluster region protein)
T2 sequence (Q16620 538-807): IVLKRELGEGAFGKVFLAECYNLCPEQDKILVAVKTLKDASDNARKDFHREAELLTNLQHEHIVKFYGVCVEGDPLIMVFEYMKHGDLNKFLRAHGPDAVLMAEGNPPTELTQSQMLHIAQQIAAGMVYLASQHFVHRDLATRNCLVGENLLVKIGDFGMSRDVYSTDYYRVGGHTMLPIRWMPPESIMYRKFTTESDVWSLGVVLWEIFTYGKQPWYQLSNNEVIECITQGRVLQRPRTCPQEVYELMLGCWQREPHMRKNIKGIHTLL
Description: as §1, §2

[3] = target: T3, BCR-NTRK1 BaF3 cells (Homo sapiens, UniProt P04629); test: BaF3 BCR-NTRK1 cell proliferation assay (ATPlite); format: cell-based; details: read-out: Inhibition of Cell Proliferation IC50, BCR/BaF3 TrkA
T3 construct: fused on or other part: P11274 (Breakpoint cluster region protein)
T3 sequence (P04629 510-781): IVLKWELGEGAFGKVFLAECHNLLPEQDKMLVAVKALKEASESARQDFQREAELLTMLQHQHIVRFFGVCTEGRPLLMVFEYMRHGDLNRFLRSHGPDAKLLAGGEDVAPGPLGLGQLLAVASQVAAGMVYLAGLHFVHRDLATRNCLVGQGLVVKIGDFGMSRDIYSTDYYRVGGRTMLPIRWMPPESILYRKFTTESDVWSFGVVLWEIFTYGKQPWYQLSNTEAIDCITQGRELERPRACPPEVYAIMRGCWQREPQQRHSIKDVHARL
Description: as §1, §2

[4] = target: CYP2C19 (Homo sapiens, UniProt P33261); test: CYP2C19 inhibition (fluorescent substrate CEC); format: in vitro ADME; details: read-out: Cyp IC50 2C19
CYP2C19, sequence (P33261 whole entry): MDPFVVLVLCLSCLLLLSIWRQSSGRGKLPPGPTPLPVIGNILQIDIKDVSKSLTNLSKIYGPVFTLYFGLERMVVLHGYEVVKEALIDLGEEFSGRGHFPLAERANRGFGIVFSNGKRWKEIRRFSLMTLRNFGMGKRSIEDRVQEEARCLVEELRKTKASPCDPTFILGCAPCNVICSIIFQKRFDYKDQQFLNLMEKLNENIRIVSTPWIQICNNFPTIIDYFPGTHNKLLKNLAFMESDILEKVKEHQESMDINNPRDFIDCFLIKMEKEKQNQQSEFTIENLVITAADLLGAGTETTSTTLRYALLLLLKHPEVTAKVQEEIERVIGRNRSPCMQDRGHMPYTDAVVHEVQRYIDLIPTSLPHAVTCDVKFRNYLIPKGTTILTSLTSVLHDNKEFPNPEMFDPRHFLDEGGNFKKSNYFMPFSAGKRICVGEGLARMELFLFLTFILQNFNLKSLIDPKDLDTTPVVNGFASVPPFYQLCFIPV
Description: (§3) CYP (Cytochrome P450) enzymes are the major drug metabolizing enzymes present in the liver. The inhibition of CYP enzyme activity (IC50) for each of CYP1A2, CYP2C19, CYP2C9, CYP2D6, CYP3A4(BFC) and CYP3A4(BQ) is determined for compounds, where inhibition of metabolism of a known substrate leads to a decrease in the fluorescence of the metabolized product. The fluorescence of the product is monitored as a function of compound concentration. Compounds are dissolved in DMSO to a concentration of 100 mM. These are diluted 1 μL into 82 μL of acetonitrile. An 11 μL aliquot of this solution is then added to 204 μL of cofactor mix (1.3% NADPH Regeneration system Solution A, 1.04% NADPH Regeneration system Solution B from BD Biosciences, 5% acetonitrile and 0.05% DMSO). These are then serially diluted 1:1 (160 μL to 160 μL co-factor mix) for a total of 10 points. A 10 μL aliquot of this final mixture is dispensed into 384 well assay plates and incubated for 10 minutes at 37° C. […] Assay plates are incubated at 37° C. (CYP1A2-15 min; CYP2C9-45 min; CYP2C19, 2D6 and 3A4-30 min) and read in a Tecan Safire 2 plate reader (CYP1A2, 2C19 and 3A4 409 ex/460 em; CYP2C9 and 2D6 409 ex/530 em). The signal versus compound concentration is used to determine the IC50. The enzymes and substrates for this assay are obtained from BD Biosciences.

[5] = target: CYP3A4(BFC) (Homo sapiens, UniProt P08684); test: CYP3A4(BFC) inhibition; format: in vitro ADME; details: CYP3A4, substrate BFC; read-out: Cyp IC50 3A4(BFC)
CYP3A4(BFC), sequence (P08684 whole entry): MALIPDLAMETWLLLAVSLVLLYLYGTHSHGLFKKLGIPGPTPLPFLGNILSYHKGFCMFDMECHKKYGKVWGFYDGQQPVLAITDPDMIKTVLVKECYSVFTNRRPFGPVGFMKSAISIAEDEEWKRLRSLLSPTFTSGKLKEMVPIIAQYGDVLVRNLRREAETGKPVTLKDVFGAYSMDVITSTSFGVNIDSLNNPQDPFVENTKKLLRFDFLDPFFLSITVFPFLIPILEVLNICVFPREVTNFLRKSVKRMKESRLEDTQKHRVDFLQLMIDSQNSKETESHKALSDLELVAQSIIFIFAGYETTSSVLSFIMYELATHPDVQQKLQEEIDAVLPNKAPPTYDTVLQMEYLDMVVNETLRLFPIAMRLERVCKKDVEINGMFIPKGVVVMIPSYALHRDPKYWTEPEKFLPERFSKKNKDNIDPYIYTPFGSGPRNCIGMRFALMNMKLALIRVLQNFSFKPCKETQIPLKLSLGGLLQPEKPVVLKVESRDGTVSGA
Description: as §3

In the case of `CC1CCC(Nc2ncc(Cc3c[nH]c4ncc(Cl)cc34)cn2)CC1` (centres unmarked) [Compound P-3009, [5-(5-Chloro-1H-pyrrolo[2,3-b]pyridin-3-ylmethyl)-pyrimidin-2-yl]-(4-methyl-cyclohexyl)-amine], the IC50 [1] is reported as < 1 µM, the IC50 [2] is reported as > 10 µM and the IC50 [3] is reported as > 10 µM. For the same molecule, the IC50 [4] was < 5 µM and the IC50 [5] was 5 to 10 µM.

`Cc1cnc2[nH]cc(Cc3cnc(Nc4ccc(F)cc4)nc3)c2c1` [Compound P-3010, (4-Fluoro-phenyl)-[5-(5-methyl-1H-pyrrolo[2,3-b]pyridin-3-ylmethyl)-pyrimidin-2-yl]-amine] was tested, and the IC50 [1] was < 0.1 µM, the IC50 [2] was > 10 µM and the IC50 [3] was > 10 µM. The IC50 [4] was > 10 µM and the IC50 [5] was > 10 µM.

`Clc1ccc(Nc2ncc(Cc3c[nH]c4ncc(Cl)cc34)cn2)cc1` [Compound P-3011, (4-Chloro-phenyl)-[5-(5-chloro-1H-pyrrolo[2,3-b]pyridin-3-ylmethyl)-pyrimidin-2-yl]-amine] was tested, and the IC50 [1] was < 0.1 µM, the IC50 [2] was < 1 µM and the IC50 [3] was < 1 µM. For the same molecule, the IC50 [4] was > 10 µM and the IC50 [5] was > 10 µM.

For `Fc1ccc(Nc2ncc(Cc3c[nH]c4ncc(Cl)cc34)cn2)cc1` [Compound P-3012, [5-(5-Chloro-1H-pyrrolo[2,3-b]pyridin-3-ylmethyl)-pyrimidin-2-yl]-(4-fluoro-phenyl)-amine], the IC50 [1] was < 0.1 µM, the IC50 [2] was < 1 µM and the IC50 [3] was < 1 µM. For the same molecule, the IC50 [4] was > 10 µM and the IC50 [5] was > 10 µM.

In the case of `Fc1nc(NC2CCC(F)(F)CC2)ccc1Cc1c[nH]c2ncc(Cl)cc12` [Compound P-3013, [5-(5-Chloro-1H-pyrrolo[2,3-b]pyridin-3-ylmethyl)-6-fluoro-pyridin-2-yl]-(4,4-difluoro-cyclohexyl)-amine], the IC50 [1] is reported as < 0.1 µM, the IC50 [2] is reported as > 10 µM and the IC50 [3] is reported as > 10 µM. For the same molecule, the IC50 [4] was < 5 µM and the IC50 [5] was > 10 µM.

For `Fc1ccccc1Nc1ncc(Cc2c[nH]c3ncc(Cl)cc23)cn1` [Compound P-3014, [5-(5-Chloro-1H-pyrrolo[2,3-b]pyridin-3-ylmethyl)-pyrimidin-2-yl]-(2-fluoro-phenyl)-amine], the IC50 [1] was < 0.1 µM, the IC50 [2] was > 10 µM and the IC50 [3] was > 10 µM.

With `Clc1cnc2[nH]cc(Cc3cnc(Nc4ccccc4Cl)nc3)c2c1` [Compound P-3015, (2-Chloro-phenyl)-[5-(5-chloro-1H-pyrrolo[2,3-b]pyridin-3-ylmethyl)-pyrimidin-2-yl]-amine] the IC50 [1] was < 1 µM, the IC50 [2] was > 10 µM and the IC50 [3] was > 10 µM.

With `COc1ccc(Nc2ccc(C(=O)c3c[nH]c4ncnc(NC(C)(C)C)c34)c(F)n2)cn1` [Compound P-4055, [4-(tert-butylamino)-7H-pyrrolo[2,3-d]pyrimidin-5-yl]-[2-fluoro-6-[(6-methoxy-3-pyridyl)amino]-3-pyridyl]methanone] the IC50 [1] was < 1 µM, the IC50 [2] was < 0.01 µM and the IC50 [3] was < 1 µM. The IC50 [4] was < 10 µM and the IC50 [5] was > 10 µM.

With `COc1ccc(Nc2ccc(C(=O)c3c[nH]c4ncnc(NC5CCC(F)(F)CC5)c34)c(F)n2)cn1` [Compound P-4056, [4-[(4,4-difluorocyclohexyl)amino]-7H-pyrrolo[2,3-d]pyrimidin-5-yl]-[2-fluoro-6-[(6-methoxy-3-pyridyl)amino]-3-pyridyl]methanone] the IC50 [1] was < 1 µM, the IC50 [2] was < 0.01 µM and the IC50 [3] was < 1 µM. The IC50 [4] was 5 to 20 µM and the IC50 [5] was > 10 µM.

With `O=C(c1ccc(NC2CCC(F)(F)CC2)nc1Cl)c1c[nH]c2ncnc(NCC(F)(F)F)c12` [Compound P-4057, [2-chloro-6-[(4,4-difluorocyclohexyl)amino]-3-pyridyl]-[4-(2,2,2-trifluoroethylamino)-7H-pyrrolo[2,3-d]pyrimidin-5-yl]methanone] the IC50 [1] was < 1 µM, the IC50 [2] was > 1 µM and the IC50 [3] was > 1 µM. The IC50 [4] was > 10 µM and the IC50 [5] was > 10 µM.

With `CNc1ncnc2[nH]cc(C(=O)c3ccc(NC4CCC(F)(F)CC4)nc3Cl)c12` [Compound P-4058, [2-chloro-6-[(4,4-difluorocyclohexyl)amino]-3-pyridyl]-[4-(methylamino)-7H-pyrrolo[2,3-d]pyrimidin-5-yl]methanone] the IC50 [1] was < 0.1 µM, the IC50 [2] was < 1 µM and the IC50 [3] was < 1 µM. The IC50 [4] was > 10 µM and the IC50 [5] was > 10 µM.

In the case of `CNc1ncnc2[nH]cc(C(=O)c3ccc(Nc4ccc(OC)nc4)nc3OC)c12` [Compound P-4085, [2-methoxy-6-[(6-methoxy-3-pyridyl)amino]-3-pyridyl]-[4-(methylamino)-7H-pyrrolo[2,3-d]pyrimidin-5-yl]methanone], the IC50 [1] is reported as < 1 µM and the IC50 [3] is reported as < 1 µM.

In the case of `CCc1ccc(Nc2ccc(C(=O)c3c[nH]c4ncnc(Nc5ccc(C)nc5)c34)c(F)n2)cn1` [Compound P-4086, [6-[(6-ethyl-3-pyridyl)amino]-2-fluoro-3-pyridyl]-[4-[(6-methyl-3-pyridyl)amino]-7H-pyrrolo[2,3-d]pyrimidin-5-yl]methanone], the IC50 [3] is reported as < 0.01 µM.

For `Cc1ccc(Nc2ccc(C(=O)c3c[nH]c4ncnc(NCC5CC5)c34)c(F)n2)cn1` [Compound P-4113, [4-(cyclopropylmethylamino)-7H-pyrrolo[2,3-d]pyrimidin-5-yl]-[2-fluoro-6-[(6-methyl-3-pyridyl)amino]-3-pyridyl]methanone], the IC50 [1] was < 0.01 µM, the IC50 [3] was < 0.1 µM and the IC50 [4] was > 10 µM. For the same molecule, the IC50 [5] was > 10 µM.

`CCCNc1ncnc2[nH]cc(C(=O)c3ccc(Nc4ccc(C)nc4)nc3F)c12` [Compound P-4114, [2-fluoro-6-[(6-methyl-3-pyridyl)amino]-3-pyridyl]-[4-(propylamino)-7H-pyrrolo[2,3-d]pyrimidin-5-yl]methanone] was tested, and the IC50 [1] was < 0.01 µM, the IC50 [3] was < 0.01 µM and the IC50 [4] was > 10 µM. For the same molecule, the IC50 [5] was > 10 µM.
